We go through two molecules from patent publication US11123340B2, “Small-molecule UT-A-selective urea transport inhibitors” (The Regents of the University of California, priority 2014, dated 2021).

Converted amounts (≈) assume the structure as drawn. Like-named read-outs stand apart in the source and are kept apart here.

One data set in a line: Solubility. The format is physicochemical. The protocol: Several vehicles and administration routes were tested in order to give predicted therapeutic inhibitor concentrations in blood and urine. […] Because of the alkaline pH of the administered compounds the vehicle control for UTAinh-F11 was 20% dimethylacetamide and 1.2 mg/mL NaHCO3 in saline to give identical pH. […] Urine levels of UTAinh-F11 were >3 μM over 6 h.
Compound toxicity was evaluated by compound incubation for 24 h with MDCK cell cultures followed by Alamar blue assay. […] To assess potential ion channel off-target effects, short-circuit current was measured in MDCK cells in response to cAMP (forskolin) and calcium (ATP) agonists (FIG. 5C, right), which depends on the actions of multiple anion (CFTR, calcium-activated chloride channels) and cation (K^+, Na^+) channels.

The target of another data set is T1, rat UT-B (Rattus norvegicus, UniProt P97689).
T1 construct: endogenous in cells; host or cells: rat erythrocytes (whole rat blood)
T1 sequence (P97689 1-384): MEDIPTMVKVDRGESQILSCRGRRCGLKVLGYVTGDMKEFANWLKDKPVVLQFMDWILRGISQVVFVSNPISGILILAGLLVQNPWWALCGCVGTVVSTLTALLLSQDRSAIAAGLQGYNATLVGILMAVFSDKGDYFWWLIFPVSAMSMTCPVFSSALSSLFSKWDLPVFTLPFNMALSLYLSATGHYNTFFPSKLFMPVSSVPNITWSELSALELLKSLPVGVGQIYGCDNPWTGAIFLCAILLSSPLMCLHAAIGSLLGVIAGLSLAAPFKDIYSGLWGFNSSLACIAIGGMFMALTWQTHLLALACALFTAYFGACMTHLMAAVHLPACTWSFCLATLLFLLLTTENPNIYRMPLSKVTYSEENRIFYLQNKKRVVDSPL
As to the kind of experiment: UT-B inhibition, erythrocyte lysis assay. The format is cell-based. The protocol: As described (see, e.g., Levin et al. (2007) FASEB J. 21, 551-563), whole rat blood was diluted to a hematocrit of ˜1.5% in PBS containing 1.25 M acetamide and 5 mM glucose. Erythrocyte suspensions (100 μL) were added to 96-well round-bottom microplates and test compounds (1 μL) were added. After 15 min incubation, 20 μL of the erythrocyte suspension was added rapidly to each well containing 180 μL of PBS. Following vigorous mixing, erythrocyte lysis was quantified by absorbance at 710 nm. Non-lysed controls (isosmolar buffer) and lysed controls (0.7 mM phloretin) were added in each plate as negative and positive controls, respectively. Percentage erythrocyte lysis was computed as: % lysis=100% (Aneg−Atest)/(Aneg−Apos), where A is absorbance at 710 nm.
Inhibitor selectivity for rat UT-A1 versus UT-B was investigated using an erythrocyte lysis assay of rat UT-B urea transport, which involved measurement of hypotonic lysis (by near-infrared absorbance) of acetamide-loaded erythrocytes following rapid dilution into acetamide-free buffer.

The next data set concerns MDCK cell monolayers. As to the kind of experiment: Inhibitor permeability across MDCK cell monolayers (LC/MS). The format is in vitro ADME, canine. The conditions noted are these: computed from surface-to-volume considerations. As to the method:
(§1) UT-A1 expressing MDCK cells were grown on 12-mm diameter collagen-coated Transwell inserts (0.4 μm pore size; Costar, Costar, N.Y.) to form tight monolayers (resistance>500 Ωcm^2), as described (see, e.g., Levin et al. (2007) FASEB J. 21, 551-563). Urea flux in the basolateral-to-apical direction was measured in response to a 15 mM urea gradient in which PBS containing forskolin (10 μM), with or without UT-A1 inhibitor and 0.7 mM phloretin, was added to both the apical-facing (0.2 mL) and basal-facing (2 mL) surfaces. After 30 min the basal-facing solution was replaced by PBS containing test compound+15 mM urea. Apical fluid samples (5 μL) were collected at specified times for enzymatic assay of urea (QUANTICHROME Urea Assay Kit; BioAssay Systems, Hayward, Calif.). To measure inhibitor permeability across MDCK cell layers, compounds (20 μM) were added on the basal-facing surface and fluid samples (20 μL) from the apical-facing surface were collected at different time points and analyzed by LC/MS.
(§2) To further evaluate the potential site of inhibitor action, the kinetics of UT-A1 inhibition was measured by assay of UT-A1 inhibition at different times after compound addition. […] To assess inhibitor membrane permeability transport of UTAinh-E02 and UTAinh-F11 across MDCK monolayers grown on porous filters by LC/MS was measured. Transport of UTAinh-F11 was much faster than that of UTAinh-E02 (FIG. 3C, right lower panel), with computed transepithelial permeability coefficients of […] and 1.1×10^−5 cm/s, respectively. From surface-to-volume considerations, the equilibration times were computed of UTAinh-E02 and UTAinh-F11 to be 250 and 14 s, respectively, in MDCK cells, which are consistent with intracellular sites of action of both inhibitors.

The target of another data set is PIM-1 kinase (Homo sapiens, UniProt P11309). The conditions noted are these: Ren et al. (2011); cited from earlier work.
Another data set deals with rats. The experiment in a line: Diuretic studies in rats. The conditions noted are these: for urine osmolality / urine volume: control, hydrated rats. The format is in vivo, rat. As to the method:
Compound effects on urine output, osmolality and urea concentration were investigated in two conditions. Rats were placed in metabolic cages with water and food available ad libitum and spontaneously voided urine was collected for 3 h. Rats were then injected intravenously with 20 mg/kg UTAinh-E02 or UTAinh-F11 in formulations listed above (or vehicle alone), and returned to the metabolic cages without access to water, but free access to food. Spontaneously voided urine was collected every 3 h for a 6-h period. In some experiments, rats were administered dDAVP (4 μg/kg, IP) just before compound (or vehicle) injection and 3 h later. […] Urine osmolality was measured in water-diluted urine samples by freezing-point osmometry (Micro-osmometer; Precision Systems, Natick, Mass.). Urea concentration was determined by a colorimetric enzymatic assay as described above.
Diuretic efficacy was tested in rats under two different conditions. Inhibitor effects on maximum urinary concentrating ability was studied in rats administered the V2-selective agonist dDAVP at 4 μg/kg every 3 hours. Inhibitors were administered intravenously at 20 mg/kg as done in the pharmacokinetics experiments above. […] Each inhibitor produced a marked increase in volume and reduction in osmolality in urine collected over 0-3 h.
In a separate set of studies UTAinh-E02 was tested in control, hydrated rats.

Data set [1] is described as follows: Inhibitor permeability across MDCK cell monolayers (LC/MS). The format is in vitro ADME, canine. The conditions noted are these: dog; MDCK monolayers on porous filters, 20 μM; read-out: transepithelial permeability coefficient. The protocol: as §1, §2

Chain of PIM-1 kinase (P11309 whole entry): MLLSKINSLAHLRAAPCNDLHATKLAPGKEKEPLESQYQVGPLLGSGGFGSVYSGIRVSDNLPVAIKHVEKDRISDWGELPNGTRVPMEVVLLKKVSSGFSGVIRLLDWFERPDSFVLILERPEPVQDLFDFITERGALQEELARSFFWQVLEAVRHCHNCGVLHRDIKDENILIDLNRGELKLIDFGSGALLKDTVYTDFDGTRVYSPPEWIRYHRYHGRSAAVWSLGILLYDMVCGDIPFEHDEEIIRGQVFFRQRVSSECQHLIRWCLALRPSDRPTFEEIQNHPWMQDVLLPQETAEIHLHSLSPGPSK

`CC(=O)Nc1ccc(-c2csc(-c3c[nH]c4ccccc34)n2)cc1` [UTA1inh-E02, N-(4-(2-(1H-indol-3-yl)thiazol-4-yl)phenyl)acetamide]: the solubility (in general, how much of the substance goes into solution per volume) in the data set “Solubility” (in words, vehicle selection) was “limited solubility”; in the data set “Solubility” (read-out: solubility limit), ~25 µM (≈ 8.34 µg/mL). Also, the “selectivity for UT-A1 versus UT-B” value at rat UT-B (rat UT-A1 versus rat UT-B) is reported as “high selectivity”. Also, the “equilibration time in MDCK cells” value in the data set with MDCK cell monolayers worked out at 250 s. Besides, the “PIM-1 kinase inhibitor potency” value at PIM-1 kinase was “micromolar potency”. The results for the urine osmolality entry in the data set on rats (0-3 h) and in the data set with rats (3-6 h collection) were “reduced” and “returned to near baseline”, respectively. In addition, the urine volume result was “significantly increased” in the data set on rats (0-3 h) and “returned to near baseline” with rats (3-6 h collection). The “ratio of urea vs. non-urea solutes in urine” value in the data set with rats (dDAVP rats, after inhibitor treatment) was “increased”.
`COc1ccc(C)cc1S(=O)(=O)Nc1ccc(Cl)c(N2CCCS2(=O)=O)c1` [UTA1inh-F11, N-[4-Chloro-3-(1,1-dioxido-1,2-thiazolidin-2-yl)phenyl]-2-methoxy-5-methylbenzene-sulfonamide]: the solubility result was “dissolved well in 20% dimethylacetamide, 0.6 mg/mL NaOH in saline” in the data set “Solubility” (in words, vehicle selection) and ~25 µM (≈ 10.8 µg/mL) in “Solubility” (read-out: solubility limit). The IC50 (usually the point on the concentration scale where inhibition reaches its midpoint) against rat UT-B (rat erythrocytes) came out at 10 µM. For the same molecule, in data set [1], the Papp B→A at 20 μM is 11 ×10⁻⁶ cm/s. The “equilibration time in MDCK cells” value in the data set on MDCK cell monolayers stood at 14 s.
